Common to all, as to type: cell-based, Wistar rat
Assay [1] relates to cortical neurons. In words: Survival of cortical neurons, MTT assay (Example 2). The following applies: 300 cells/mm^2, 5 days, vs DMSO control. Here is the method:
Cells obtained from the suspension prepared in Example 1 were cultivated in 6-well plates coated with 30 μg/ml of poly-D-lysine (Sigma) at 300 cells/mm^2 and cultivated at 37° C., 5% CO2 and 95% relative humidity. The growth media contained compounds A, B, D, E, F, G, and H respectively and the growth media added with 5 μl of DMSO were used as control. The differentiated cells after cultivation were categorically called cortical neurons.
The experiments were repeated three times. After cultivating for 5 days, live cells were counted by a known cell-counting method (MTT assay) and the absorbance was read at 540 nm.

The subject of assay [2] is cortical neurons. Nature of the assay: Neurite length of cortical neurons at low cellular density (Example 4). The following applies: 38 cells/mm^2, 5 days, control cells all dead. Here is the method:
Cells obtained from the suspension prepared in Example 1 were cultivated at a density of 38 cells/mm^2 in 6-well plates coated with 30 μg/ml poly-D-lysine (Sigma) at 37° C., 5% CO2 and 95% relative humidity. The growth media contained compounds A, B, D, and G respectively and the growth media added with 5 μl of DMSO were used as control. The differentiated cells are categorically called cortical neurons.
The experiments were repeated three times. After cultivating for 5 days, the cells were observed under microscope and the length of the neurites was measured.

Assay [3] relates to neural stem cells. Nature of the assay: Differentiation of NSCs from neurospheres, MAP-2 immunofluorescent staining (Example 5). The following applies: added in the beginning, with or without adding again at seeding; 3 days + 3 days. Here is the method:
In the beginning of cultivating NSCs, either compound A or EGF was added into the growth media. The cells were cultivated for 3 days and the cells would aggregate to form neurospheres. One hundred μl of the cell suspension was aspirated and diluted to 1 ml. 250 μl of the supernatant which contained neurospheres was aspirated and placed on the cover slides coated with 30 μg/ml poly-D-lysine (Sigma). After all the cells had been attached onto the slides, the media was removed and replaced with the cultivating media containing compound A (FIG. 5A), EGF (FIG. 5C), or none of the growth factors (FIG. 5B, compound A in the beginning; FIG. 5D, EGF in the beginning). The cells were cultivated for another 3 days at the same condition as described above so that the cells would differentiate into cortical neurons.
The cells were stained with a known immunofluorescent staining method. To stain the neurons, a neurological marker of MAP-2 (microtubule-associated protein 2) antibody was used as the primary antibody and a fluorescent material-labeled mouse immunoglobulin that identified primary antibody was used as the second antibody. After the primary antibody that had been bound onto the neurons was identified and bound by the secondary antibody, the neurons emit fluorescent light under the excitation of a specific light source.

Assay [4] has as its system neural stem cells. Nature of the assay: Continuous cultivation of NSCs for 30 days, cell morphology (Example 7). Here is the method:
As in Example 1, the NSCs were cultivated continuously and the growth media were replaced every seven days. DMSO-added growth media were used as the negative control. After 30 days, 100 μl of the cell suspension was aspirated and diluted to 1 ml. 250 μl of the supernatant was aspirated and placed on the slides coated with 30 μg/ml poly-D-lysine (Sigma). The cell morphology was observed thereafter under a microscope.

In assay [5] the test system is neural stem cells. Nature of the assay: Differentiation of NSCs with compound D and EGF, immunofluorescent staining (Example 6). The following applies: compound D and EGF in the beginning, only the named substance at seeding. Here is the method: The procedures were similar to Example 5. However, in the beginning of cultivating the neural stem cells, both compound D and EGF were added into the media. After all the cells had been attached onto the slides, the media were removed and replaced with the cultivating media containing compound D (FIG. 6B), EGF (FIG. 6C), none of the growth factors (FIG. 6D), or both compound D and EGF (FIG. 6A). The cells were cultivated for another 3 days and the cell morphology was observed thereafter by using immunofluorescent staining technique.

`CC(C)=CCC/C(C)=C/Cc1c(O)cc2c(c1O)C(=O)C[C@@H](c1ccc(O)c(O)c1CC=C(C)C)O2` [compound G]: the “live cells, MTT absorbance at 540 nm” value in the assay with cortical neurons [1] was “best results”. The “growth of neurons and neurites under microscope” value (shortened to “growth of neurons and neurites”) with cortical neurons [2] (5 μM) is “continuous growth of the neurons and the extension of the neurites can be observed”.
Turning to `C/C(=C\Cc1cc([C@@H]2CC(=O)c3c(O)cc(O)cc3O2)cc(O)c1O)CCCC(C)(C)O` [compound B], the “growth of neurons and neurites” value in the assay with cortical neurons [2] (5 μM) was “continuous growth of the neurons and the extension of the neurites can be observed”.
`C/C(=C\Cc1c([C@@H]2CC(=O)c3c(O)cc(O)cc3O2)ccc(O)c1O)CCCC(C)(C)O` [compound A]: the “cell type after differentiation (MAP-2 staining)” value in the assay with neural stem cells [3] is given as “the cells will differentiate into neurons”. The “live cells, MTT absorbance at 540 nm” value in the assay on cortical neurons [1] is “best results”. Further, in the assay with cortical neurons [2] (2.5 μM), the “growth of neurons and neurites” value is “continuous growth of the neurons and the extension of the neurites can be observed”. Moreover, in the assay on neural stem cells [4] (media replaced every seven days, control almost no surviving cells), the “sphere formation of neural stem cells after 30 days” value is on record as “can maintain the characteristics of forming spherical clusters”. Also, the “differentiation after 30 days culture plus another 3 days (immunofluorescence)” value in the assay on neural stem cells [4] (neurospheres grown 30 days with compound) is given as “differentiating normally into neurons with the continuous outgrowth of neurites”.
Regarding `CC(C)=CCC/C(C)=C/Cc1c([C@@H]2CC(=O)c3c(O)cc(O)cc3O2)ccc(O)c1O` [compound D], in the assay on neural stem cells [5], the “cell type after differentiation” value is “the cells will differentiate into neurons”. Moreover, the “live cells, MTT absorbance at 540 nm” value in the assay on cortical neurons [1] was “best results”. Moreover, the “growth of neurons and neurites” value in the assay with cortical neurons [2] (5 μM) is “continuous growth of the neurons and the extension of the neurites can be observed”.
